What all share (experiment): Antifungal activity, microtiter broth dilution MIC
What all share (type): cell-based
In general terms: Dilution methods test growth across graded concentrations, often in twofold steps.

For assay [1], the system named is Candida parapsilosis. The conditions noted are these: 35 °C, 24-48 hours. As to the method:
(§1) Antifungal activity for the compounds of this invention was established by evaluating a representative compound of this invention (Compound I) against several strains of fungi. Briefly the following procedure was used to evaluate such activity. A 96 U-bottom microtiter plate was filled (50 µl/well) with RPMI 1640. The compounds to be evaluated were placed in appropriate wells, and serial diluted in successive wells to provide 11 dilutions. The concentrations ranged from 64 through 0.06 µg/ml. An adjusted inoculum of fungi (50 µl) was added to each well and the plates were incubated at 35 °C for 24-48 hours. […]

In assay [2] the test system is Candida rugosa. The conditions noted are these: Candida rugosa ID 94-10, 35 °C, 24-48 hours. The procedure: as §1
Assay [3] concerns Aspergillus niger. The conditions noted are these: Aspergillus niger ID S-430, 35 °C, 24-48 hours. The procedure: as §1
In assay [4] the test system is Candida glabrata. The conditions noted are these: Candida glabrata ID ATCC 90030, 35 °C, 24-48 hours. The procedure: as §1
Assay [5] deals with Candida zeylanoided. The note with it: Candida zeylanoided ID 94-15, 35 °C, 24-48 hours. The procedure:
as §1

Assay [6] deals with Candida albicans. The note with it: 35 °C, 24-48 hours. As to the method:
as §1

In assay [7] the test system is Candida krussii. The conditions noted are these: Candida krussii ID 94-2, 35 °C, 24-48 hours. As to the method:
as §1

Assay [8] relates to Candida lusitaniae. The note with it: Candida lusitaniae ID 94-3, 35 °C, 24-48 hours. The procedure:
as §1

For assay [9], the system named is Aspergillus flavus. The conditions noted are these: Aspergillus flavus ID ATCC 12963, 35 °C, 24-48 hours. The procedure:
as §1

Assay [10] concerns Candida pseudotropicalis. The note with it: Candida pseudotropicalis ID ATCC 28838, 35 °C, 24-48 hours. The procedure:
as §1

Assay [11] concerns Filobasidiella neoformans. The note with it: Filobasidiella neoformans ID ATCC 7472, 35 °C, 24-48 hours. As to the method: as §1
For assay [12], the system named is Aspergillus fumigatus. The conditions noted are these: Aspergillus fumigatus ID ATCC 26933, 35 °C, 24-48 hours. The procedure: as §1
For assay [13], the system named is Candida tropicalis. The note with it: 35 °C, 24-48 hours. The procedure: as §1
Assay [14] concerns Cryptococcus neoformans. The note with it: Cryptococcus neoformans ID ATCC 90112, 35 °C, 24-48 hours. The procedure:
as §1

The subject of assay [15] is Saccharomyces cerevisiae. The conditions noted are these: Saccharomyces cerevisiae ID ATCC 2601, 35 °C, 24-48 hours. The procedure: as §1
The mark [16] stands for this setting: Lodderomyces parapsilosis, ATCC90018, Candida parapsilosis ID ATCC 90018, read-out: MIC.
Setting [17] is: Lodderomyces parapsilosis, Candida parapsilosis ID 94-8, read-out: MIC.
The mark [18] stands for this setting: Lodderomyces parapsilosis, Candida parapsilosis ID 94-9, read-out: MIC.
The mark [19] stands for this setting: Nakaseomyces glabratus, ATCC90030, read-out: MIC.
The mark [20] stands for this setting: Candida albicans, ATCC90028, Candida albicans ID ATCC 90028, read-out: MIC.
Setting [21] is: Candida albicans, Candida albicans ID 94-1, read-out: MIC.
Where [22] appears, read: Candida albicans, Candida albicans ID 1063, read-out: MIC.
Setting [23] is: Candida albicans, Candida albicans ID 1117, read-out: MIC.
[24] abbreviates: Candida albicans, Candida albicans ID C-83, read-out: MIC.
Where [25] appears, read: Clavispora lusitaniae, read-out: MIC.
Where [26] appears, read: Kluyveromyces marxianus, ATCC28838, read-out: MIC.
Setting [27] is: Cryptococcus neoformans, ATCC7472, read-out: MIC.
[28] abbreviates: Candida tropicalis ID 94-14, read-out: MIC.
[29] abbreviates: Candida parapsilosis ID ATCC 90018.

Each structure is given as a SMILES string. ≈ marks a conversion by molar mass, not a printed value. Where two headings read alike, the source gives them in different places. Bounds are passed on as bounds.

Broadly, the MIC is the lowest concentration found to suppress growth. On to `Clc1ccc(COC(Cn2ccnc2)c2ccc(Cl)cc2Cl)c(Cl)c1` (stereo not shown) [Miconazole], for which the MIC in assay [1] (setting [16]) was not above 0.12 µg/mL; in [1] (setting [17]), 0.25 µg/mL (≈ 0.601 µM); in assay [1] (setting [18]), 0.5 µg/mL (≈ 1.2 µM); in assay [2] (Diutina rugosa, read-out: MIC), not above 0.12 µg/mL; in assay [3] (read-out: MIC), 4 µg/mL (≈ 9.61 µM); in assay [4] (setting [19]) it was not above 0.12 µg/mL. Besides, the minimum inhibitory concentration (MIC) came to 0.25 µg/mL (≈ 0.601 µM) in assay [5] (read-out: MIC); 0.5 µg/mL (≈ 1.2 µM) in [6] (setting [20]); 8 µg/mL (≈ 19.2 µM) in assay [6] (setting [21]); 1 µg/mL (≈ 2.4 µM) in assay [6] (setting [22]); 1 µg/mL (≈ 2.4 µM) in assay [6] (setting [23]); 8 µg/mL (≈ 19.2 µM) in [6] (setting [24]). Further, the MIC in [7] (read-out: MIC) was 2 µg/mL (≈ 4.81 µM); in assay [8] (setting [25]) it was not above 0.12 µg/mL; in [9] (ATCC12963, read-out: MIC), 0.5 µg/mL (≈ 1.2 µM); in [10] (setting [26]), not above 0.12 µg/mL; in [11] (setting [27]) it was 0.25 µg/mL (≈ 0.601 µM); in assay [12] (ATCC26933, read-out: MIC) it was 1 µg/mL (≈ 2.4 µM). The minimal inhibitory concentration (MIC) in assay [13] (Candida tropicalis ID 94-13) was 4 µg/mL (≈ 9.61 µM); in [13] (setting [28]), 4 µg/mL (≈ 9.61 µM); in [14] (ATCC90112, read-out: MIC), not above 0.12 µg/mL; in assay [15] (ATCC2601, read-out: MIC), not above 0.12 µg/mL.

For `C[C@@H]1[C@H](O)[C@@H](C)/C=C/C=C/C=C/C=C/C=C/C=C/C=C/[C@H](O[C@@H]2O[C@H](C)[C@@H](O)[C@H](N)[C@@H]2O)C[C@@H]2O[C@](O)(C[C@@H](O)C[C@@H](O)[C@H](O)CC[C@@H](O)C[C@@H](O)CC(=O)O[C@H]1C)C[C@H](O)[C@H]2C(=O)O` [Amphtericin B], the minimum inhibitory concentration (MIC) in assay [1] (Candida parapsilosis ID 94-8) is 0.25 µg/mL (≈ 0.271 µM); in [1] (Candida parapsilosis ID 94-9), 0.5 µg/mL (≈ 0.541 µM); in assay [1] (setting [29]), not above 0.12 µg/mL; in assay [2] it was 0.25 µg/mL (≈ 0.271 µM); in assay [3] it was 0.25 µg/mL (≈ 0.271 µM); in assay [4], 0.25 µg/mL (≈ 0.271 µM). In addition, the MIC was 0.25 µg/mL (≈ 0.271 µM) in [5]; not above 0.12 µg/mL in [6] (Candida albicans ID 94-1); 0.25 µg/mL (≈ 0.271 µM) in assay [6] (Candida albicans ID 1063); 0.25 µg/mL (≈ 0.271 µM) in assay [6] (Candida albicans ID 1117); 0.25 µg/mL (≈ 0.271 µM) in [6] (Candida albicans ID ATCC 90028); 0.25 µg/mL (≈ 0.271 µM) in assay [6] (Candida albicans ID C-83). Moreover, the minimum inhibitory concentration (MIC) is 0.5 µg/mL (≈ 0.541 µM) in [7]; not above 0.12 µg/mL in [8]; 2 µg/mL (≈ 2.16 µM) in assay [9]; 0.25 µg/mL (≈ 0.271 µM) in [10]; 0.12 µg/mL (≈ 0.13 µM) in assay [11]; 0.25 µg/mL (≈ 0.271 µM) in assay [12]. Besides, the minimum inhibitory concentration (MIC) in assay [13] (Candida tropicalis ID 94-13) was 0.25 µg/mL (≈ 0.271 µM); in assay [13] (Candida tropicalis ID 94-14), 0.25 µg/mL (≈ 0.271 µM); in [14], not above 0.12 µg/mL; in assay [15], not above 0.12 µg/mL.

For `C[C@@H]1[C@H](O)[C@@H](C)/C=C/C=C/CC/C=C/C=C/C=C/C=C/C(O[C@H]2O[C@H](C)[C@@H](O)[C@H](N)[C@@H]2O)CC2O[C@](O)(CC(O)C(O)CCC(O)CC(O)CC(O)CC(=O)O[C@H]1C)CC(O)C2C(=O)O` (stereo partly shown) [Nystatin], the MIC was 1 µg/mL (≈ 1.08 µM) in [1] (Candida parapsilosis ID 94-8); 1 µg/mL (≈ 1.08 µM) in [1] (Candida parapsilosis ID 94-9); 1 µg/mL (≈ 1.08 µM) in [1] (setting [29]); 2 µg/mL (≈ 2.16 µM) in [2]; 4 µg/mL (≈ 4.32 µM) in [3]; 1 µg/mL (≈ 1.08 µM) in [4]. For the same molecule, the minimum inhibitory concentration (MIC) in [5] was 1 µg/mL (≈ 1.08 µM); in assay [6] (Candida albicans ID 94-1), 2.0 µg/mL (≈ 2.16 µM); in assay [6] (Candida albicans ID 1063), 2 µg/mL (≈ 2.16 µM); in [6] (Candida albicans ID 1117) it was 1 µg/mL (≈ 1.08 µM); in assay [6] (Candida albicans ID ATCC 90028), 1 µg/mL (≈ 1.08 µM); in [6] (Candida albicans ID C-83) it was 2 µg/mL (≈ 2.16 µM). The MIC in assay [7] was 2 µg/mL (≈ 2.16 µM); in [8] it was 1 µg/mL (≈ 1.08 µM); in assay [9] it was not below 16 µg/mL; in assay [10], 1 µg/mL (≈ 1.08 µM); in assay [11], 0.5 µg/mL (≈ 0.54 µM); in assay [12] it was 1 µg/mL (≈ 1.08 µM). Further, the minimal inhibitory concentration (MIC) in assay [13] (Candida tropicalis ID 94-13) was 1 µg/mL (≈ 1.08 µM); in assay [13] (Candida tropicalis ID 94-14), 2 µg/mL (≈ 2.16 µM); in [14], 0.5 µg/mL (≈ 0.54 µM); in [15], 2 µg/mL (≈ 2.16 µM).

As to `OC(Cn1cncn1)(Cn1cncn1)c1ccc(F)cc1F` [Fluconazole], the MIC in assay [1] (setting [16]) is 0.5 µg/mL (≈ 1.63 µM); in assay [1] (setting [17]), 0.5 µg/mL (≈ 1.63 µM); in [1] (setting [18]), 0.5 µg/mL (≈ 1.63 µM); in [2] (Diutina rugosa, read-out: MIC), 2 µg/mL (≈ 6.53 µM); in assay [3] (read-out: MIC), more than 16 µg/mL; in assay [4] (setting [19]), 4 µg/mL (≈ 13.1 µM). Besides, the minimum inhibitory concentration (MIC) in assay [5] (read-out: MIC) was not below 16 µg/mL; in assay [6] (setting [20]) it was not below 16 µg/mL; in assay [6] (setting [21]) it was not below 16 µg/mL; in [6] (setting [22]) it was 4 µg/mL (≈ 13.1 µM); in assay [6] (setting [23]), 8 µg/mL (≈ 26.1 µM); in assay [6] (setting [24]) it was not below 16 µg/mL. Further, the minimal inhibitory concentration (MIC) in assay [7] (read-out: MIC) is not below 16 µg/mL; in [8] (setting [25]) it was 1 µg/mL (≈ 3.27 µM); in [9] (ATCC12963, read-out: MIC), more than 16 µg/mL; in [10] (setting [26]), not above 0.12 µg/mL; in assay [11] (setting [27]) it was 16 µg/mL (≈ 52.2 µM); in assay [12] (ATCC26933, read-out: MIC), more than 16 µg/mL. Further, the minimum inhibitory concentration (MIC) in assay [13] (Candida tropicalis ID 94-13) is not below 16 µg/mL; in [13] (setting [28]), not below 16 µg/mL; in [14] (ATCC90112, read-out: MIC), 8 µg/mL (≈ 26.1 µM); in assay [15] (ATCC2601, read-out: MIC) it was 8 µg/mL (≈ 26.1 µM).
